Values of other authors, collected in patent US5635503A, “Dihydropyridine npy antagonists: piperazine derivatives” (Bristol-Myers Squibb Company, priority 1995, dated 1997).

Legend:
[1] = test system: vasoconstrictive activity of the NPY1 agonist [Leu31, Pro34]NPY
Y2 receptor = target: T1, Y2 receptor (Rattus norvegicus, UniProt Q9ERC0); conditions: functional selectivity for the Y2 receptor
T1 sequence (Q9ERC0 1-381): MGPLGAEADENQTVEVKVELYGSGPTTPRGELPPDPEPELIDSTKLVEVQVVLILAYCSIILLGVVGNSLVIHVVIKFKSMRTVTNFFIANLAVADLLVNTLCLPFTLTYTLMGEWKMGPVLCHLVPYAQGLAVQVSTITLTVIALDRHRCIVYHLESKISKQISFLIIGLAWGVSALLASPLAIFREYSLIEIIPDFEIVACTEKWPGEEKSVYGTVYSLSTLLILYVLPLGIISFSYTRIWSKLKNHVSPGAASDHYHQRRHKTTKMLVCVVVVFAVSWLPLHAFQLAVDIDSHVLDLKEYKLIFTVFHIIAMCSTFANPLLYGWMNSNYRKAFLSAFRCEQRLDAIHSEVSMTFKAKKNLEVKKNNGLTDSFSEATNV

[2] = test system: NPY-related increases in diastolic blood pressure; conditions: anesthetized guinea pig model

Structure (SMILES) | effect on vasoconstrictive activity of the NPY1 agonist [Leu31, Pro34]NPY [1] | effect on the NPY2 agonist NPY13-36 (Y2 receptor) | functional antagonism (rat femoral artery) | antagonism of NPY-related increases in diastolic blood pressure [2]
N=C(N)N(CCCCCCNCc1ccc2ccccc2c1)CCCCCCN(CCCCCCNCc1ccc2ccccc2c1)C(=N)N [Example 6b] | had no effect | antagonized the effect | display functional antagonism | –
CN(C)CC1CCC(CNC(=N)c2ccc(CC(NC(=O)C(Cc3ccccc3)NS(=O)(=O)c3ccc4ccccc4c3)C(=O)N3CCCC3)cc2)CC1 (stereo not shown) [SR 120819A] | – | – | – | antagonized
